ChEMBL document CHEMBL4304811, “Development of a Water-Soluble Indolylmaleimide Derivative IM-93 Showing Dual Inhibition of Ferroptosis and NETosis” (ACS Med Chem Lett, 2019)
The source made the active and inactive calls. The rule behind the calls is not given here.

What was measured:
[1] = system: HL-60; assay: Cytoprotection against human HL60 cells assessed as inhibition of H2O2-induced cell death pretreated for 1 hr followed by H2O2 stimulation measured after 3 hrs by p-iodonitrotetrazolium violet dye based LDH assay; format: functional
[2] = system: NIH3T3; assay: Inhibition of erastin-induced ferroptosis in mouse NIH/3T3 cells after 24 hrs by WST-8 assay; format: functional, cell-based; details: NIH3T3, 24 h
[3] = system: NIH3T3; assay: Inhibition of TBHP-induced ferroptosis in mouse NIH/3T3 cells after 12 hrs by WST-8 assay; format: functional, cell-based; details: NIH3T3, 12 h
[4] = system: Neutrophil; assay: Inhibition of PMA-induced NETosis in human neutrophils at 25 uM preincubated for 30 mins followed by PMA stimulation and measured after 3 hrs by Hoechst […] staining based fluorescence microscopic analysis; format: functional, cell-based
[5] = system: Neutrophil; assay: Inhibition of PMA-induced NETosis in human neutrophils at 2.5 uM preincubated for 30 mins followed by PMA stimulation and measured after 3 hrs by Hoechst […] staining based fluorescence microscopic analysis; format: functional, cell-based
[6] = system: Neutrophil; assay: Inhibition of PMA-induced superoxide production in C57BL6 mouse neutrophils at 2.5 uM preincubated for 30 mins followed by PMA stimulation and measured after 30 mins by luminol-lucignenin based luminescence assay; format: functional, cell-based
[7] = system: Neutrophil; assay: Inhibition of PMA-induced NETosis in human neutrophils assessed as inhibition of ROS production at 25 uM pretreated for 25 mins followed by PMA stimulation and measured after 20 mins by DCFH-DA based flow cytometry; format: functional, cell-based
[8] = system: Neutrophil; assay: Inhibition of PMA-induced NETosis in human neutrophils assessed as reduction in lipid peroxidation at 2.5 uM preincubated for 30 mins followed by PMA stimulation measured after 30 mins by C11-Bodipy fluorescent dye based flow cytometry; format: functional, cell-based
[9] = system: THP-1; assay: Inhibition of Staphylococcus aureus-induced pyroptosis in human THP1 cells at 10 uM preincubated for 1 hr followed by bacterial infection and measured after 2 hrs by INT dye based LDH assay; format: functional, cell-based
[10] = system: THP-1; assay: Inhibition of Pseudomonas aeruginosa-induced pyroptosis in human THP1 cells at 10 uM preincubated for 1 hr followed by bacterial infection and measured after 2 hrs by INT dye based LDH assay; format: functional, cell-based
[11] = system: Neutrophil; assay: Inhibition of PMA-induced NETosis in human neutrophils at […] preincubated for 30 mins followed by PMA stimulation and measured after 3.5 hrs by Hoechst […] staining based fluorescence microscopic analysis; format: functional, cell-based
[12] = Aqueous solubility of compound in citrate-phosphate buffer at pH 7.0 after 30 mins by HPLC analysis; format: physicochemical
[13] = system: Neutrophil; assay: Inhibition of PMA-induced NETosis in human neutrophils at 100 uM preincubated for 30 mins followed by PMA stimulation and measured after 3 hrs by Hoechst […] staining based fluorescence microscopic analysis; format: functional, cell-based
[14] = system: Neutrophil; assay: Inhibition of PMA-induced NETosis in human neutrophils assessed as effect on lipid peroxidation at 100 uM preincubated for 30 mins followed by PMA stimulation measured after 30 mins by C11-Bodipy fluorescent dye based flow cytometry; format: functional, cell-based
[15] = system: Neutrophil; assay: Inhibition of PMA-induced superoxide production in C57BL6 mouse neutrophils at 100 uM preincubated for 30 mins followed by PMA stimulation and measured after 30 mins by luminol-lucignenin based luminescence assay; format: functional, cell-based

SMILES | IC50 [1] [nM] | other results
CN1C(=O)C(NCc2ccc(Cl)cc2)=C(c2cn(C)c3ccccc23)C1=O | 310 | 
CN(C)CCCNC1=C(c2cn(C)c3ccccc23)C(=O)N(C)C1=O | 610 | 
CCOC(=O)c1ccc(NC2CCCCC2)c(N)c1 |  | IC50 [2]: 270 nM; IC50 [3]: 220 nM; inhibition [4]: inactive; inhibition [5]: inactive; inhibition [6]: inactive; inhibition [7]: inactive; inhibition [8]: Active
CN1C(=O)C(NC2CCCCC2)=C(c2cn(C)c3ccccc23)C1=O | 1000 | 
CCCNC(=O)[C@H]1O[C@@H]1C(=O)N[C@H](C(=O)N1CCC[C@H]1C(=O)OC)[C@@H](C)CC |  | inhibition [9]: Active; inhibition [10]: Active
CN1C(=O)C(NCc2ccccc2)=C(c2cn(C)c3ccccc23)C1=O | 330 | 
CC(=O)N[C@@H](CS)C(=O)O |  | inhibition [11]: inactive
CCCCCN1C(=O)C(NCCC)=C(c2cn(C)c3ccccc23)C1=O | 320 | 
CN1C(=O)C(NC(c2ccccc2)c2ccccc2)=C(c2cn(C)c3ccccc23)C1=O | 1200 | 
CN1C(=O)C(N)=C(c2cn(C)c3ccccc23)C1=O | 4500 | 
CCCCCCCCCCCCCN1C(=O)C(NCCC)=C(c2cn(C)c3ccccc23)C1=O | 400 | 
CN1C(=O)C(NCCN)=C(c2cn(C)c3ccccc23)C1=O.Cl |  | solubility at 0.5 h [12]: 71 mM
CCCNC1=C(c2cn(C)c3ccccc23)C(=O)N(CCC)C1=O | 610 | 
C[C@@H](NC1=C(c2cn(C)c3ccccc23)C(=O)N(C)C1=O)c1ccccc1 | 390 | 
CN1C(=O)C(NCc2ccccc2Cl)=C(c2cn(C)c3ccccc23)C1=O | 1700 | 
COc1cccc(CNC2=C(c3cn(C)c4ccccc34)C(=O)N(C)C2=O)c1 | 420 | 
CN1C(=O)C(c2cn(C)c3ccccc23)=C(N2CCCC2)C1=O | 4700 | 
CCCNC1=C(c2cn(C)c3ccccc23)C(=O)N(CC)C1=O | 750 | 
CN1C(=O)C(NCc2cccnc2)=C(c2cn(C)c3ccccc23)C1=O | 1300 | 
CN(C)CCNC1=C(c2cn(C)c3ccccc23)C(=O)N(C)C1=O | 760 | 
CCCNC1=C(c2cn(C)c3ccccc23)C(=O)N(Cc2ccccc2)C1=O | 450 | 

SMILES | IC50 [1] [nM] | other results
CN1C(=O)C(NCc2ccccn2)=C(c2cn(C)c3ccccc23)C1=O | 1300 | 
CN(C)C1=C(c2cn(C)c3ccccc23)C(=O)N(C)C1=O | 4300 | 
CN1C(=O)C(NCCc2ccccc2)=C(c2cn(C)c3ccccc23)C1=O | 650 | 
COc1ccc(CNC2=C(c3cn(C)c4ccccc34)C(=O)N(C)C2=O)cc1 | 860 | 
CCCNC1=C(c2cn(C)c3ccccc23)C(=O)N(C2CCCC2)C1=O | 280 | 
CCCNC1=C(c2cn(C)c3ccccc23)C(=O)N(C(c2ccccc2)(c2ccccc2)c2ccccc2)C1=O | 800 | 
CCCCCNC1=C(c2cn(C)c3ccccc23)C(=O)N(C)C1=O |  | solubility at 0.5 h [12]: < 0.001 mM
CCCNC1=C(c2cn(C)c3ccccc23)C(=O)N(C(C)C)C1=O | 34 | 
CN1C(=O)C(NC2CCCC2)=C(c2cn(C)c3ccccc23)C1=O | 300 | 
C[C@H](NC1=C(c2cn(C)c3ccccc23)C(=O)N(C)C1=O)c1ccccc1 | 510 | 
CC(=O)N(O)CCCCCNC(=O)CCC(=O)N(O)CCCCCNC(=O)CCC(=O)N(O)CCCCCN [DEFEROXAMINE] |  | IC50 [2]: 4900 nM; IC50 [3]: 9000 nM; inhibition [13]: inactive; Activity [14]: inactive; inhibition [15]: inactive
CN1C(=O)C(NC(C)(C)C)=C(c2cn(C)c3ccccc23)C1=O | 880 | 
CC(C)NC1=C(c2cn(C)c3ccccc23)C(=O)N(C)C1=O | 480 | 
COc1ccccc1CNC1=C(c2cn(C)c3ccccc23)C(=O)N(C)C1=O | 480 | 
CN1C(=O)C(NCC2CCCCC2)=C(c2cn(C)c3ccccc23)C1=O | 390 | 
CN1C(=O)C(NCc2ccncc2)=C(c2cn(C)c3ccccc23)C1=O | 1200 | 
CN1C(=O)C(NCc2ccco2)=C(c2cn(C)c3ccccc23)C1=O | 710 | 
CCCCN1C(=O)C(NCCC)=C(c2cn(C)c3ccccc23)C1=O | 350 | 
CN1C(=O)C(NCc2cccc(Cl)c2)=C(c2cn(C)c3ccccc23)C1=O | 280 | 
CCCNC1=C(c2cn(C)c3ccccc23)C(=O)N(C(CC)CC)C1=O | 480 | 
CN1C(=O)C(NC2CC2)=C(c2cn(C)c3ccccc23)C1=O | 3800 | 
